Data from patent US20230172958A1, “USE OF COMPOUNDS FOR TREATING VIRAL INFECTIONS” (priority 2020, published 2023).

How the values were obtained:
[1] = system: Human Peripheral Blood Lymphocytes; experiment: MTT toxicity assay on normal cells; format: cell-based; conditions: 48 hours
Experimental: Toxicity studies of compounds of the present invention on normal cells The toxicity study was performed on Human Peripheral Blood Lymphocytes obtained differential centrifugation of defibrinated blood. MTT assay for compound of the present invention was performed to determine its toxicity. MTT assay is a simple and sensitive assay where, metabolic reducing activity of the cells is measured. It was carried out in the following manner.
A required volume of cell suspension was prepared as per the cell plating efficiency. 200 μl of prepared cell suspension was added in labelled 96 well plates and the plates were placed in an incubator for 18-24 hours at 37° C. and 5% CO2. Then, 2 μl of respective compound dilution was added and the plates were placed in the incubator for 48 hours at 37° C. and 5% CO2. The suspension was aspirated from the plates and 100 μl of working MTT solution (0.5 mg/ml MTT prepared from 5 mg/ml MTT stock in 1× complete media) was added. The plates were incubated in the incubator for 4 hours at 37° C. and 5% CO2. The plates were spinned down, supernatant removed, 200 μl DMSO was added, mixed gently and placed in the incubator for 10 minutes at 37° C. and 5% CO2. The absorbance at 570 nm was read and percentage viability and IC50 value of the compounds was calculated using regression analysis.

[2] = system: V-ATPase; experiment: V-ATPase ELISA (Human V-Type Proton ATPase ELISA kit) on treated MDAMB231 cells; format: cell-based; conditions: 100 nM (0.1 μM)/10,000 cells, 48 hours
Experimental: An ELISA test was performed using Human V-Type Proton ATPase ELISA kit (My BioSource Catlog no: MBS911862) to determine the V-ATPase inhibitory effect of the compounds of the present invention.
Procedure: 1.0 million cells of MDAMB231 (cell line rich in V-ATPase) were plated on 60 mm plates for 24 hours at 37° C. and 5% CO2. The cells were treated with the test compounds (Formula A to U) at a concentration of 100 nM (0.1 μM)/10,000 cells and incubated for 48 hours. After incubation the supernatant was discarded, the cells were washed with D.P.B.S. (Dulbecco's phosphate-buffered saline), scraped and stored at −80° C. for 48 hours. The cells were thawed, vortexed, homogenized for 7 minutes, followed by centrifugation for 3 minutes at 3000 R.P.M. The supernatant was taken for V-ATPase Assay.
Standards and samples were pipetted into the wells. Antibody specific for V-ATPase was pre-coated onto a microplate. Any V-ATPase present in the standard /sample would get bound by the immobilized antibody. After the incubation period any unbound substances were removed by washing and a biotin-conjugated antibody specific for V-ATPase was added to the wells and plates were re-incubated at 37° C. and 5% CO2. After washing, avidin conjugated Horseradish Peroxidase (HRP) was added to the wells. Following a wash to remove any unbound avidin-enzyme reagent, a substrate solution was added to the wells and colour developed was in proportion to the amount of V-ATPase bound in the initial step. The colour development was stopped, and the optical density was measured at 450 nm spectrophotometrically. The concentration of V-ATPase was then calculated by substituting the optical density in the regression equation obtained from the standards. Percent (%) reduction in V-ATPase was calculated by subtracting the amount of V-ATPase obtained from the untreated/conc. of V-ATPase in untreated X100.

Row | Compound | IC50 (μM) [1] | reduction of V-ATPase (%) [2] [%]
1 | O=S(=O)(Nc1ccc(-c2ccc3c(c2)OCO3)c2ccccc12)c1ccccc1 [Compound of Formula I, N-(1-(benzo[d][1,3]dioxol-5-yl)naphthalen-4-yl)benzenesulphonamide] | No activity (Nontoxic) | 20.56
2 | COc1ccc(-c2ccc(OCCN3CCOCC3)c3ccccc23)cc1OC [Compound of Formula U, 4-(2-(1-(3,4-dimethoxyphenyl)naphthalen-4-yloxy)ethyl)morpholine] | No activity (Nontoxic) | 16.57
3 | c1ccc2c(-c3ccc4c(c3)OCO4)ccc(OCCN3CCOCC3)c2c1 [Compound of Formula O, 4-(2-(1-(benzo[d][1,3]dioxol-5-yl)naphthalen-4-yloxy)ethyl)morpholine] | No activity (Nontoxic) | 20.26
4 | COc1cccc(-c2ccc(OCCN3CCOCC3)c3ccccc23)c1 [Compound of Formula P, 4-(2-(1-(3-methoxyphenyl)naphthalen-4-yloxy)ethyl)morpholine] | No activity (Nontoxic) | 18.27
5 | O=C(CN1CCNCC1)Nc1ccc(-c2ccc3c(c2)OCO3)c2ccccc12 [Compound of Formula K, N-(1-(benzo[d][1,3]dioxol-5-yl)naphthalen-4-yl)-2-(piperazin-1-yl)acetamide] |  | 28.05
6 | O=C(Nc1ccc(-c2ccc3c(c2)OCO3)c2ccccc12)c1ccco1 [Compound of Formula G, N-(1-(benzo[d][1,3]dioxol-5-yl)naphthalen-4-yl)furan-2-carboxamide] |  | 62.37
7 | c1ccc2c(-c3ccc4c(c3)OCO4)ccc(OCCCCN3CCOCC3)c2c1 [Compound of Formula M, 4-(4-(1-(benzo[d][1,3]dioxol-5-yl)naphthalen-4-yloxy)butyl)morpholine] |  | 76.16
8 | c1ccc(COc2ccc(-c3ccc4c(c3)OCO4)c3cccnc23)cc1 [Compound of Formula H, 5-(benzo[d][1,3]dioxol-5-yl)-8-(benzyloxy)quinoline] |  | 61.34
9 | c1ccc2c(-c3ccc4c(c3)OCO4)ccc(OCCCCNC3CCCCC3)c2c1 [Compound of Formula N, N-(4-(1-(benzo[d][1,3]dioxol-5-yl)naphthalen-4-yloxy)butyl)cyclohexanamine] |  | 6.3
10 | c1cc2c(cc1-c1ccc(OCCCCCCNC3CCCCC3)c3c1CCCC3)OCO2 [Compound of Formula Q, N-(6-(5-(benzo[d][1,3]dioxol-5-yl)-1,2,3,4-tetrahydronaphthalen-8-yloxy)hexyl)cyclohexanamine] |  | 77.42
11 | c1cnc2c(OCCN3CCOCC3)ccc(-c3ccc4c(c3)OCO4)c2c1 [Compound of Formula S, 8-(2-morpholinoethoxy)-5-(benzo[d][1,3]dioxol-5-yl)quinoline] |  | 75.5
12 | O=C(CN1CCNCC1)NCCOc1ccc(-c2ccc3c(c2)OCO3)c2ccccc12 [Compound of Formula T, N-(2-(1-(benzo[d][1,3]dioxol-5-yl)naphthalen-4-yloxy)ethyl)-2-(piperazin-1-yl)acetamide] |  | 81.9
13 | O=S(=O)(Nc1ccc(-c2ccc3c(c2)OCO3)c2ccccc12)c1ccc(F)cc1 [Compound of Formula J, N-(1-(benzo[d][1,3]dioxol-5-yl)naphthalen-4-yl)-4-fluorobenzenesulphonamide] |  | 60.96
14 | C=CCNCCCCCCOc1ccc(-c2ccc3c(c2)OCO3)c2c1CCCC2 [Compound of Formula R, 6-(5-(benzo[d][1,3]dioxol-5-yl)-1,2,3,4-tetrahydronaphthalen-8-yloxy)-N-allylhexan-1-amine] |  | 16.2
